{"source": "paper PMC7804203", "about": "“Targeting adaptor protein SLP76 of RAGE as a therapeutic approach for lethal sepsis” (Nature Communications, 2021)", "assay_type_in_all_cases": "cell-based", "key": {"[1]": {"test_system": "p38 MAPK phosphorylation, RAW264.7 cells", "test": "Western blot, p38 MAPK phosphorylation in RAW264.7 cells treated with AGEs", "settings": "15 min (P < 0.05)", "description": "(§1) Cultured cells in 6-well plates were harvested, washed twice with PBS, and lysed for 30 min on ice in 150 μl of cell lysis buffer (#9803) from CST (Boston, MA, USA) containing 1 mM PMSF and 2 μg/ml leupeptin. Proteins were quantified with the BCA method. Protein samples were resolved by 10% SDS-PAGE, transferred to a nitrocellulose (NC) membrane (#GE10600002), and blocked for 1 h with 5% nonfat milk in Tris-buffered saline containing 0.1% Tween 20 (TBST) at room temperature. After incubation with a specific primary antibody overnight at 4 °C, the membrane was washed with TBST three times. Then, the membrane was incubated with a secondary antibody for 1 h at room temperature. Enhanced chemiluminescence (ECL) (#32109, Thermo Fisher Scientific, Waltham, MA, USA) was used to visualize the protein bands, and images were acquired in a ChemiDoc™ Imaging System (Bio-Rad, Hercules, CA, USA). Each experiment was repeated at least three times."}, "[2]": {"test_system": "IKKα/β phosphorylation, HEK293 cells", "test": "Western blot, IKKα/β phosphorylation in transfected HEK293 cells treated with AGEs", "settings": "Fig. 4d, AGEs 100 μg/ml, 15 min, single runs Exp1-Exp3", "description": "(§2) HEK293 cells (3 × 10^5) were cultured to a confluence of 80–90% in a 60 mm dish. Then, cells were transfected with 2 μg of total DNA by using 6 μl GeneJammer reagent (#204130, Agilent, Santa Clara, CA, USA) mixed with Opti-MEM (200 μl final volume) and were then incubated for 5 min at room temperature. RAW264.7 cells (1 × 10^5) were transfected with control siRNA, siRNA targeting AGER or siRNA targeting SLP76 using HiPerFect reagent (#301705, Qiagen, Hilden, Germany). SiRNA diluted in HiPerFect transfection reagent was premixed with Opti-MEM medium at room temperature for 5 min and incubated with cells in a 24-well plate for 48 h.\nas §1"}, "[3]": {"test_system": "p38 MAPK phosphorylation, RAW264.7 cells", "test": "Western blot, AGE-induced p38 MAPK activation after TAT-fused peptides", "settings": "AGEs+, relative to Ctrl without AGEs = 1", "description": "as §1"}, "[4]": {"test_system": "p38 MAPK phosphorylation, HEK293 cells", "test": "Western blot, p38 MAPK phosphorylation in transfected HEK293 cells treated with AGEs", "settings": "Fig. 4b, AGEs 100 μg/ml, 15 min, single runs Exp1-Exp3", "description": "as §2, §1"}, "[5]": {"test_system": "ERK1/2 phosphorylation, HEK293 cells", "test": "Western blot, ERK1/2 phosphorylation in transfected HEK293 cells treated with AGEs", "settings": "Fig. 4c, AGEs 100 μg/ml, 15 min, single runs Exp1-Exp3", "description": "as §2, §1"}, "[6]": {"test_system": "ERK1/2 phosphorylation, RAW264.7 cells", "test": "Western blot, ERK1/2 phosphorylation in RAW264.7 cells treated with AGEs", "settings": "15 min (P < 0.05)", "description": "as §1"}, "[7]": {"test_system": "IKKα/β phosphorylation, RAW264.7 cells", "test": "Western blot, AGE-induced IKKα/β activation after TAT-fused peptides", "settings": "AGEs+, relative to Ctrl without AGEs = 1", "description": "as §1"}, "[8]": {"test_system": "JNKs phosphorylation, RAW264.7 cells", "test": "Western blot, JNK phosphorylation in RAW264.7 cells treated with AGEs", "settings": "AGEs 100 μg/ml; for JNK phosphorylation: Supplementary Fig. 4, single runs Exp1-Exp3", "description": "as §1"}, "[9]": {"test_system": "ERK1/2 phosphorylation, RAW264.7 cells", "test": "Western blot, AGE-induced ERK1/2 activation after TAT-fused peptides", "settings": "AGEs+, relative to Ctrl without AGEs = 1", "description": "as §1"}, "[10]": {"test_system": "interaction between RAGE and SLP76 in HEK293 cells", "test": "Co-IP of Flag-SLP76 with HA-RAGE (HA-tag antibody) in HEK293 cells treated with AGEs", "settings": "Fig. 1c–e", "description": "as §2\nAfter transfection for 24 h, HEK293 cells were treated with AGEs at the indicated times and doses. Then, cells were collected and lysed with lysis buffer, and protein was quantitated with a bicinchoninic acid (BCA) kit (#23227, Thermo Fisher Scientific, Waltham, MA, USA). Total input protein (500 µg) was incubated with anti-FLAG M2 beads or anti-HA affinity gel overnight at 4 °C. After brief centrifugation, samples were washed five times with lysis buffer containing 0.1% Tween 20. Samples were then resolved by SDS-PAGE and subjected to western blotting with a specific antibody against the HA or Flag tag."}}, "note": "“And” between values parts separate entries of the source, which are not always exact repeats. Equal values may be shown once.", "data": [{"substance": "AGEs: AGEs-BSA (#2221-10) purchased from Biovision; advanced glycation end products, RAGE ligand", "values": [{"measurement": "Phosphorylation of p38 MAPK", "setting": "[1]", "value": "increased significantly"}, {"measurement": "phosphorylated IKKα/β", "setting": "[2]; RAGE overexpressed", "value": "12.7634 and 9.791 and 10.05"}, {"measurement": "phosphorylated IKKα/β", "setting": "[2]; RAGE+SLP76 overexpressed", "value": "21.1403 and 18.74 and 17.6458"}, {"measurement": "phosphorylated IKKα/β", "setting": "[2]; SLP76 overexpressed", "value": "5.321 and 6.4 and 5.551"}, {"measurement": "phosphorylated IKKα/β", "setting": "[2]; control vector", "value": "8.805 and 7.3 and 6.5457"}, {"measurement": "Relative p38 MAPK phosphorylation, Supplementary figure 11c", "setting": "[3]; Exp1", "value": 2.6013}, {"measurement": "Relative p38 MAPK phosphorylation, Supplementary figure 11c", "setting": "[3]; Exp2", "value": 2.501}, {"measurement": "Relative p38 MAPK phosphorylation, Supplementary figure 11c", "setting": "[3]; Exp3", "value": 3.172}, {"measurement": "phosphorylated p38 MAPK", "setting": "[4]; RAGE overexpressed", "value": "1.6247 and 1.965 and 1.83"}, {"measurement": "phosphorylated p38 MAPK", "setting": "[4]; RAGE+SLP76 overexpressed", "value": "2.026 and 2.548 and 2.612"}, {"measurement": "phosphorylated p38 MAPK", "setting": "[4]; SLP76 overexpressed", "value": "1.3753 and 1.591 and 1.725"}, {"measurement": "phosphorylated p38 MAPK", "setting": "[4]; control vector", "value": "1.2576 and 1.45 and 1.104"}, {"measurement": "phosphorylated ERK1/2", "setting": "[5]; RAGE overexpressed", "value": "4.032 and 4.674 and 4.165"}, {"measurement": "phosphorylated ERK1/2", "setting": "[5]; RAGE+SLP76 overexpressed", "value": "5.962 and 6.497 and 6.322"}, {"measurement": "phosphorylated ERK1/2", "setting": "[5]; SLP76 overexpressed", "value": "3.146 and 2.87 and 3.315"}, {"measurement": "phosphorylated ERK1/2", "setting": "[5]; control vector", "value": "3.0116 and 3.25 and 2.795"}, {"measurement": "Phosphorylation of ERK1/2", "setting": "[6]", "value": "increased significantly"}, {"measurement": "Relative IKKα/β phosphorylation, Supplementary figure 11e", "setting": "[7]; Exp1", "value": 3.559}, {"measurement": "Relative IKKα/β phosphorylation, Supplementary figure 11e", "setting": "[7]; Exp2", "value": 4.547}, {"measurement": "Relative IKKα/β phosphorylation, Supplementary figure 11e", "setting": "[7]; Exp3", "value": 6.152}, {"measurement": "Phosphorylation of JNKs", "setting": "[8]; 0-240 min, n=3", "value": "no significant difference between groups"}, {"measurement": "JNK phosphorylation", "setting": "[8]; 5 min", "value": "0.9831 and 1.298 and 1.325"}, {"measurement": "JNK phosphorylation", "setting": "[8]; 15 min", "value": "1.062 and 0.8245 and 0.7215"}, {"measurement": "JNK phosphorylation", "setting": "[8]; 30 min", "value": "1.133 and 1.03 and 0.8721"}, {"measurement": "JNK phosphorylation", "setting": "[8]; 60 min", "value": "1.061 and 0.95 and 0.8845"}, {"measurement": "JNK phosphorylation", "setting": "[8]; 90 min", "value": "1.254 and 1.05 and 0.7684"}, {"measurement": "JNK phosphorylation", "setting": "[8]; 120 min", "value": "1.217 and 0.98 and 0.8649"}, {"measurement": "JNK phosphorylation", "setting": "[8]; 240 min", "value": "1.277 and 0.91 and 0.7954"}, {"measurement": "Relative ERK1/2 phosphorylation, Supplementary figure 11d", "setting": "[9]; Exp1", "value": 3.946}, {"measurement": "Relative ERK1/2 phosphorylation, Supplementary figure 11d", "setting": "[9]; Exp2", "value": 5.325}, {"measurement": "Relative ERK1/2 phosphorylation, Supplementary figure 11d", "setting": "[9]; Exp3", "value": 6.025}, {"measurement": "RAGE/SLP76 binding after exposure to AGEs", "setting": "[10]", "value": "dose- and time-dependent"}]}]}
